Reference: patent US10822317B2, “Methods and compositions for wound healing” (QBiotics Limited, priority 2013, dated 2020)

What was measured:
[1] = system: human neonatal fibroblasts; assay: Scratch closure, human neonatal fibroblasts, Method 3 (IncuCyte); assay type: cell-based; conditions: 200 ng/mL
Procedure: The ability of early. passage neonatal foreskin fibroblasts (NFF) cultured in RPMI 1640-10% foetal calf serum to migrate across a scratch wound made in a confluent monolayer following treatment with purified compounds or plant extracts was determined using one or more of the following three methods.
Cells were seeded and treated in 96-well plates as in Method 2 (5 replicate wells per dilution), except that the scratches were made in one action with a tool having 96, 1 mm thick teflon coated pins (Essen Bioscience Woundmaker). The plate was then placed in a 37° C., 5% CO2 humidified atmosphere in an IncuCyte FLR instrument programmed to photograph each well under phase contrast at 3 hr intervals for 42 hours. The software determined the initial scratch boundaries and their rate of closure. Accelerated wound closure was considered to be significant if the initial rate of closure was >10% of the untreated controls.

[2] = system: human peripheral blood monocytes; assay: Differentiation of monocytes into macrophages; assay type: cell-based; conditions: 10-fold dilutions; 4 days; adherence and morphology
Procedure: To determine potential effects of Compound 1 and fifteen other epoxy-tigliane compounds in the array on monocyte differentiation, human peripheral blood mononuclear cells (PBMCs) were isolated by Ficoll-Paque sedimentation of heparinised blood from a human donor, and plated at 100,000 cells/well in RPMI-1640 10% FCS. Duplicate wells were treated with 10-fold dilutions of the compounds and incubated at 37° C. for 4 days. The wells were scored visually for cell attachment and morphology, then washed twice with PBS, stained with sulfurhodamine and the incorporate stain quantitated in an ELISA reader. The plates were then washed with water and stained with 1% crystal violet in methanol for photography and scoring of adherent cell morphology.

| Compound | % closure compared to control [1] | Differentiation endpoint (endpoint concentration in dilution series for induction of macrophage phenotype) [2] |
| --- | --- | --- |
| CCCCCC=CC=CC(=O)OC1C(C)C2(O)C(C3OC3(CO)C(O)C3(O)C(=O)C(C)=CC32)C2C(C)(C)C12OC(=O)C(C)CC (stereo not drawn) [Compound 18, 12-[(2Z,4E)-deca-2,4-dienoyl]-13-(2-methylbutanoyl)-6,7-epoxy-4,5,9,12,13,20-hexahydroxy-1-tigliaen-3-one] | 220% | – |
| 12-benzoyl-13-(2-methylbutanoyl)-6,7-epoxy-4,5,9,12,13,20-hexahydroxy-1-tigliaen-3-one [Compound 23] | 130% | 1 ng/mL |
| CCCCCC(=O)OC12C(O)C(C)C3(O)C(C4OC4(CO)C(O)C4(O)C(=O)C(C)=CC43)C1C2(C)C (stereo not drawn) [Compound 53, 13-hexanoyl-6,7-epoxy-4,5,9,12,13,20-hexahydroxy-1-tigliaen-3-one] | – | 100 ng/mL |
| 12-tigloyl-13-butanoyl-6,7-epoxy-4,5,9,12,13,20-hexahydroxy-1-tigliaen-3-one [Compound 21] | 200% | 10 ng/mL |
| 12-myristoyl-13-(2-methylbutanoyl)-6,7-epoxy-4,5,9,12,13,20-hexahydroxy-1-tigliaen-3-one [Compound 51] | – | 1 ng/mL |
| CCCCCC=CC=CC(=O)OC1C(C)C2(O)C(C3OC3(CO)C(O)C3(O)C(=O)C(C)=CC32)C2C(C)(C)C12OC(=O)C(C)CC (stereo not drawn) [Compound 24, 12-[(2E,4E)-deca-2,4-dienoyl]-13-(2-methylbutanoyl)-6,7-epoxy-4,5,9,12,13,20-hexahydroxy-1-tigliaen-3-one] | – | 1 ng/mL |
| 12-(3-butenoyl)-13-nonanoyl-6,7-epoxy-4,5,9,12,13,20-hexahydroxy-1-tigliaen-3-one [Compound 22] | 400% | 100 ng/mL |
| CCCCCC(O)C(O)/C=C/C=C/C(=O)OC1C(C)C2(O)C(C3OC3(CO)C(O)C3(O)C(=O)C(C)=CC32)C2C(C)(C)C12OC(=O)C(C)CC (stereo not drawn) [Compound 11, 12-[(2E,4E)-6,7-dihydroxydodeca-2,4-dienoyl]-13-(2-methylbutanoyl)-6,7-epoxy-4,5,9,12,13,20-hexahydroxy-1-tigliaen-3-one] | 270% | – |
| CCCCCC=CC=CC=CC(=O)OC1C(C)C2(O)C(C3OC3(CO)C(O)C3(O)C(=O)C(C)=CC32)C2C(C)(C)C12OC(=O)C(C)CC (stereo not drawn) [Compound 3, 12-[(2E,4E,6E)-dodeca-2,4,6-trienoyl]-13-(2-methylbutanoyl)-6,7-epoxy-4,5,9,12,13,20-hexahydroxy-1-tigliaen-3-one] | 270% | 10 ng/mL |
| CCC(C)C(=O)OC1C(C)C2(O)C(C3OC3(CO)C(O)C3(O)C(=O)C(C)=CC32)C2C(C)(C)C12OC(C)=O (stereo not drawn) [Compound 52, 12-(2-methylbutanoyl)-13-acetyl-6,7-epoxy-4,5,9,12,13,20-hexahydroxy-1-tigliaen-3-one] | – | 10 ng/mL |
| 12,13-di-heptanoyl-6,7-epoxy-4,5,9,12,13,20-hexahydroxy-1-tigliaen-3-one [Compound 49] | – | 1 ng/mL |
| 12-benzoyl-13-butanoyl-6,7-epoxy-4,5,9,12,13,20-hexahydroxy-1-tigliaen-3-one [Compound 28] | 140% | – |
| 12,13-di-nonoyl-6,7-epoxy-4,5,9,12,13,20-hexahydroxy-1-tigliaen-3-one [Compound 41] | – | 0.1 ng/mL |
| 12-myristoyl-13-acetyl-6,7-epoxy-4,5,9,12,13,20-hexahydroxy-1-tigliaen-3-one [Compound 50] | – | 1 ng/mL |
